Experimental findings from patent US11542255B2, “Sulfonylureas and sulfonylthioureas as NLRP3 inhibitors” (Inflazome Limited, priority 2017, dated 2023) are described below.

Where a name gives a salt, the structure may show the parent alone.

One may read the IC50 as the concentration that inhibits the measured activity by half. A word on the AUC: it is concentration integrated over time. Low readings indicate low exposure, high ones high exposure. A word on the CL/F: it is clearance divided by bioavailability, as obtained after extravascular dosing. What is called Cmax is the highest concentration seen after dosing. In general, Tmax refers to the time at which the peak concentration occurs. For orientation: half-life means the time needed for the level to fall by half in the phase considered. Usually clearance stands for the volume of plasma or blood freed of the substance per unit of time.

The target of data set [1] is T1, NLRP3 (Homo sapiens, UniProt Q96P20). The data set can be described thus: Human whole blood IL1β release assay (LPS + nigericin, AlphaLisa IL-1β). Set-up: Human whole blood in Li-heparin tubes was obtained from healthy donors from a volunteer donor panel; from tissue; host or cells: human whole blood from healthy donors. The following applies: NLRP3 inhibitory activity, 1 μg/ml LPS, 10 μM nigericin, IL-1β release, read-out: HWB IC50. In kind it is cell-based. In outline:
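Donor human whole blood (Li-heparin) was primed with 1 μg/mL LPS while incubated with compound (8-point half-log, 10 μM top, 0.1% DMSO) for 3 h at 37° C., then stimulated with 10 μM nigericin for 1 h. Supernatant IL-1β measured by AlphaLISA; IC50 from 4-parameter nonlinear fit.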
A general note: Bead proximity is the source of the signal in Alpha formats.

Data set [2] concerns the target T1, NLRP3. The data set can be described thus: THP-1 cells pyroptosis assay (LPS + nigericin, resazurin readout). Particulars: NLRP3 inhibitory activity, 1.0 μg/ml LPS, 5 μM nigericin. Set-up: Seed THP-1 cells (25,000 cells/well) containing 1.0 μg/ml LPS in 40 μl of RPMI medium; host or cells: THP-1 cells. The data set is classed as cell-based. In outline:
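LPS-primed (1 μg/ml) THP-1 cells, 25,000/well in serum-free RPMI, given compound (8-point half-log, 10 μM top; 0.1% DMSO) for 3 h at 37 °C, then nigericin 5 μM for 1 h. Viability by resazurin (100 μM, 1-2 h), Ex 560/Em 590 nm; IC50 from 4-parameter variable-slope fit.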
A general note: Alamar Blue is a resazurin reagent that responds to reducing activity.

Data set [3] in a line: PK protocol, oral administration. In kind it is in vivo, male Sprague Dawley rats. The following applies: male, Sprague Dawley, rat, plasma, dose (mg/kg); for AUC / CL/F / Cmax / Tmax / half-life: po. The protocol:
(§1) Pharmacokinetic parameters were determined in male Sprague Dawley rats (Charles River, UK, 250-350 g; or Vital River Laboratory Animal Technology Co Ltd, Beijing, China, 7-9 weeks old). Animals were individually housed during the study and maintained under a 12 h light/dark cycle. Animals had free access to food and water except that some orally dosed animals were food deprived overnight prior to the study.
(§2) For intravenous administration, compounds were formulated as a solution in water or […] in 2 mL/kg dosing volume and administered via tail vein. For oral administration, compounds were formulated as a solution in water or DMSO:water [10:90] in 5 mL/kg dosing volume and administered orally.
(§3) Serial blood samples (about 120-300 μL) were taken from each animal at each of 8 time-points post dose (0.083, 0.25, 0.5, 1, 2, 4, 8 and 24 h) or at each of 12 time-points post dose (0.03, 0.1, 0.17, 0.25, 0.5, 1, 2, 4, 6, 8, 12 and 24 h) or pre-dose and at each of 9 time-points post dose (0.25, 0.5, 1, 2, 4, 6, 8, 12 and 24 h). Samples were held on ice for no longer than 30 minutes before centrifugation (10,000 rpm (8,385 g) for 3 minutes; or 5,696 rpm (3,0009 for 15 minutes) for plasma generation. Plasma was frozen on dry ice prior to boanalysis. PK parameters were generated from LC-MS/MS data using Dotmatics or Phoenix WinNonlin 6.3 software.

A short description of data set [4]: PK protocol, intravenous administration. The data set is classed as in vivo, male Sprague Dawley rats. Particulars: male, Sprague Dawley, rat, plasma, dose (mg/kg); for Vd: read-out: Vdss. The protocol: as §1, §2, §3

T1 sequence (Q96P20 whole entry): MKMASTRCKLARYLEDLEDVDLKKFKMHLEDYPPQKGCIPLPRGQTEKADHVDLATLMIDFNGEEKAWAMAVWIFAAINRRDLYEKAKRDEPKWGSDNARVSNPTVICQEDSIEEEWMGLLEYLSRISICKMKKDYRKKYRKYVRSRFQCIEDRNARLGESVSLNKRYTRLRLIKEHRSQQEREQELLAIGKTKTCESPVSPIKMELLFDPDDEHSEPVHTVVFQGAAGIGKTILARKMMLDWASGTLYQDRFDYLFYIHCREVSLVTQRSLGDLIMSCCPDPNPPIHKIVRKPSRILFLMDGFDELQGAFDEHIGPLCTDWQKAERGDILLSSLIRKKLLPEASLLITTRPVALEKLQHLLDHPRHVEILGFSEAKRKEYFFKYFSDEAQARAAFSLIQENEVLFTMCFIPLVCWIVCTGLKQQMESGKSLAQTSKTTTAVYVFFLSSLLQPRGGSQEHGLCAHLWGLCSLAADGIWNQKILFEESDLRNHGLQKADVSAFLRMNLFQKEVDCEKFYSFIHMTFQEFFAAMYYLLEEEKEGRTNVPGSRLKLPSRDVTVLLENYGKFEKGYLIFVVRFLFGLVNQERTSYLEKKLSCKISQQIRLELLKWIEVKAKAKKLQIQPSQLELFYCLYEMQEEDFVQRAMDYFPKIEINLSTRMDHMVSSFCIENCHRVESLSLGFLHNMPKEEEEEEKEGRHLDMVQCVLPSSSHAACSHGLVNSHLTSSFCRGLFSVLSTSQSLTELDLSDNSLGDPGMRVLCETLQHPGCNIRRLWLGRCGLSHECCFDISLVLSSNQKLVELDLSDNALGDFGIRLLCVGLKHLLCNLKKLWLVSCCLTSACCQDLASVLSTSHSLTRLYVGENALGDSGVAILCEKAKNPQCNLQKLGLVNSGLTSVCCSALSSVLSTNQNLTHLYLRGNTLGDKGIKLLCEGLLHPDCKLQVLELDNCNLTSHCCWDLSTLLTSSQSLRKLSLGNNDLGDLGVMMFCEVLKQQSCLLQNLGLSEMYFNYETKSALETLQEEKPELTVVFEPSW

Consider `CC(c1cc(S(=O)(=O)NC(=O)Nc2c3c(cc4c2CCC4)CCC3)nn1C)N(C)C` (single isomer, unassigned; enantiomer 1) [Example 69, 5-(1-(Dimethylamino)ethyl)-N-((1,2,3,5,6,7-hexahydro-s-indacen-4-yl)carbamoyl)-1-methyl-1H-pyrazole-3-sulfonamide, Enantiomer 1], for which the IC50 in data set [1] is less than 0.4 µM. Further, the IC50 in data set [2] was less than 0.04 µM. In addition, in data set [3], the AUC was found to be 17000 ng·h/mL, the CL/F worked out at 4.2 mL/min/kg, the Cmax worked out at 7460 ng/mL and the Tmax stood at 0.38 h. Besides, the half-life in data set [3] is 1.2 h.

`CN(C)Cc1cc(S(=O)(=O)NC(=O)Nc2c3c(cc4c2CCC4)CCC3)nn1C1CC1` [Example 7, 1-Cyclopropyl-5-((dimethylamino)methyl)-N-((1,2,3,5,6,7-hexahydro-s-indacen-4-yl)carbamoyl)-1H-pyrazole-3-sulfonamide]: in data set [4], the AUC was 3480 ng·h/mL, the clearance was found to be 4.9 mL/min/kg, the half-life was 1.2 h and the Vd came to 0.36 L/kg. The IC50 in data set [1] lay within 0.4 to 0.8 µM. Further, the IC50 in data set [2] was less than 0.04 µM. For the same compound, in data set [3], the bioavailability stood at 204%, the AUC is 21200 ng·h/mL, the CL/F turned out to be 2.4 mL/min/kg and the highest level (Cmax) was 6690 ng/mL. Further, in data set [3], the time to peak (Tmax) turned out to be 1 h and the half-life is 2.2 h.

Turning to `CNCc1cc(S(=O)(=O)NC(=O)Nc2c3c(cc4c2CCC4)CCC3)nn1C(C)C` [Example 50, N-((1,2,3,5,6,7-Hexahydro-s-indacen-4-yl)carbamoyl)-1-isopropyl-5-((methylamino)methyl)-1H-pyrazole-3-sulfonamide], in data set [4], the AUC came out at 11400 ng·h/mL, the clearance amounted to 1.5 mL/min/kg, the half-life was 3.5 h and the Vd stood at 0.39 L/kg. The IC50 in data set [1] was 0.4 to 0.8 µM. In data set [2], the IC50 was in the range of 0.04 to 0.16 µM. For the same compound, in data set [3], the bioavailability came out at 84%, the area under the curve (AUC) came to 19100 ng·h/mL, the CL/F is 1.8 mL/min/kg and the Cmax was 2410 ng/mL. For the same compound, in data set [3], the time of peak concentration (Tmax) was 1.3 h and the half-life is 3.3 h.

For `CC(c1cc(S(=O)(=O)NC(=O)Nc2c3c(cc4c2CCC4)CCC3)nn1C)N1CCC1` (stereo not drawn) [Example 76, 5-(1-(Azetidin-1-yl)ethyl)-N-((1,2,3,5,6,7-hexahydro-s-indacen-4-yl)carbamoyl)-1-methyl-1H-pyrazole-3-sulfonamide], in data set [4], the AUC worked out at 4900 ng·h/mL, the clearance amounted to 5.8 mL/min/kg, the half-life was 3.2 h and the Vd was found to be 0.66 L/kg. Also, in data set [1], the IC50 is less than 0.4 µM. Also, the IC50 in data set [2] is 0.04 to 0.16 µM. In data set [3], the bioavailability worked out at 45.6%, the AUC came to 5650 ng·h/mL, the apparent clearance CL/F amounted to 12.3 mL/min/kg and the Cmax came to 2340 ng/mL. Also, in data set [3], the Tmax stood at 0.5 h and the half-life was 2.9 h.

Take `CC(C)c1cc(F)cc(C(C)C)c1NC(=O)NS(=O)(=O)c1cc(CN(C)C)n(C)n1` [Example 92, 5-((Dimethylamino)methyl)-N-((4-fluoro-2,6-diisopropyl-phenyl)carbamoyl)-1-methyl-1H-pyrazole-3-sulfonamide, Sodium Salt]: in data set [4], the AUC worked out at 1280 ng·h/mL, the clearance turned out to be 13.1 mL/min/kg, the half-life is 3.2 h and the Vd worked out at 2.19 L/kg. In data set [1], the IC50 was less than 0.4 µM. Besides, in data set [2], the IC50 was in the range of 0.16 to 0.64 µM.

With `CC(C)c1cc(Cl)cc(C(C)C)c1NC(=O)NS(=O)(=O)c1cc(CN(C)C)n(C)n1` [Example 93, N-((4-Chloro-2,6-diisopropylphenyl)carbamoyl)-5-((dimethylamino)methyl)-1-methyl-1H-pyrazole-3-sulfonamide, Sodium Salt], in data set [4], the AUC is 4230 ng·h/mL, the clearance turned out to be 10.8 mL/min/kg, the half-life is 3.3 h and the Vd was 1.71 L/kg. Further, the IC50 in data set [1] was in the range of 0.8 to 1.6 µM. Further, in data set [2], the IC50 fell in the range of 0.04 to 0.16 µM. In data set [3], the bioavailability amounted to 31.3%, the AUC came out at 3310 ng·h/mL, the CL/F was 18 mL/min/kg and the Cmax stood at 1100 ng/mL. Moreover, the Tmax in data set [3] turned out to be 0.36 h.

Regarding `CN(C)Cc1cc(S(=O)(=O)NC(=O)Nc2c3c(cc4c2CCC4)CCC3)nn1C` [Example 94, 5-((Dimethylamino)methyl)-N-((1,2,3,5,6,7-hexahydro-s-indacen-4-yl)carbamoyl)-1-methyl-1H-pyrazole-3-sulfonamide], in data set [4], the AUC was found to be 4700 ng·h/mL, the clearance was determined as 3.8 mL/min/kg, the half-life is 1.1 h and the Vd was found to be 0.27 L/kg. For the same compound, the IC50 in data set [1] was less than 0.4 µM. The IC50 in data set [2] is less than 0.04 µM. In addition, in data set [3], the bioavailability was determined as 91.6%, the exposure (AUC) stood at 12900 ng·h/mL, the CL/F was found to be 4.1 mL/min/kg and the Cmax amounted to 7180 ng/mL. In addition, in data set [3], the Tmax is 0.58 h and the half-life is 1.5 h.
